Patent US10757941B2, “Microbiocidal oxadiazole derivatives” (SYNGENTA PARTICIPATIONS AG, priority 2016, dated 2020)

Tests used:
Phakopsora pachyrhizi = experiment: Fungicidal activity against Phakopsora pachyrhizi / soybean / leaf disc preventative (Asian soybean rust); format: in vivo; details: foliar, 200 ppm in the applied formulation, soybean leaf disks, preventative (inoculated one day after application), assessed 12 to 14 days after application, compared to untreated, read-out: disease control
Experimental: Leaf disks or leaf segments of various plant species are cut from plants grown in a greenhouse. The cut leaf disks or segments are placed in multiwell plates (24-well format) onto water agar. The leaf disks are sprayed with a test solution before (preventative) or after (curative) inoculation. Compounds to be tested are prepared as DMSO solutions (max. 10 mg/ml) which are diluted to the appropriate concentration with 0.025% Tween20 just before spraying. The inoculated leaf disks or segments are incubated under defined conditions (temperature, relative humidity, light, etc.) according to the respective test system. A single evaluation of disease level is carried out 3 to 14 days after inoculation, depending on the pathosystem. Percent disease control relative to the untreated check leaf disks or segments is then calculated. Example 3: Fungicidal Activity Against Phakopsora pachyrhizi/Soybean/Leaf Disc Preventative (Asian Soybean Rust) Soybean leaf disks are placed on water agar in multiwell plates (24-well format) and sprayed with the formulated test compound diluted in water. One day after application leaf discs are inoculated by spraying a spore suspension on the lower leaf surface. After an incubation period in a climate cabinet of 24-36 hours in darkness at 20° C. and 75% rh leaf disc are kept at 20° C. with 12 h light/day and 75% rh. The activity of a compound is assessed as percent disease control compared to untreated when an appropriate level of disease damage appears in untreated check leaf disks (12 to 14 days after application). The following compounds at 200 ppm in the applied formulation give at least 80% disease control in this test when compared to untreated control leaf disks under the same conditions, which show extensive disease development.

[1] = tested on: Puccinia recondita f. Sp. Tritici; experiment: Fungicidal activity against Puccinia recondita f. sp. tritici / wheat / leaf disc preventative (brown rust); format: in vivo; details: foliar, 200 ppm in the applied formulation, wheat leaf segments cv. Kanzler, preventative (inoculated 1 day after application), assessed 7 to 9 days after application, compared to untreated, read-out: disease control
Experimental: Leaf disks or leaf segments of various plant species are cut from plants grown in a greenhouse. The cut leaf disks or segments are placed in multiwell plates (24-well format) onto water agar. The leaf disks are sprayed with a test solution before (preventative) or after (curative) inoculation. Compounds to be tested are prepared as DMSO solutions (max. 10 mg/ml) which are diluted to the appropriate concentration with 0.025% Tween20 just before spraying. The inoculated leaf disks or segments are incubated under defined conditions (temperature, relative humidity, light, etc.) according to the respective test system. A single evaluation of disease level is carried out 3 to 14 days after inoculation, depending on the pathosystem. Percent disease control relative to the untreated check leaf disks or segments is then calculated. Example 1: Fungicidal Activity Against Puccinia recondita f. Sp. Tritici/Wheat/Leaf Disc Preventative (Brown Rust) Wheat leaf segments cv. Kanzler were placed on agar in multiwell plates (24-well format) and sprayed with the formulated test compound diluted in water. The leaf disks were inoculated with a spore suspension of the fungus 1 day after application. The inoculated leaf segments were incubated at 19° C. and 75% relative humidity (rh) under a light regime of 12 hours light/12 hours darkness in a climate cabinet and the activity of a compound was assessed as percent disease control compared to untreated when an appropriate level of disease damage appears in untreated check leaf segments (7 to 9 days after application). The following compounds at 200 ppm in the applied formulation give at least 80% disease control in this test when compared to untreated control leaf disks under the same conditions, which show extensive disease development.

Uromyces viciae-fabael = experiment: Fungicidal activity against Uromyces viciae-fabae / field bean / leaf disc preventative (faba-bean rust); format: in vivo; details: foliar, 288 h, 100 ppm in the applied formulation, field bean leaf discs, preventative (inoculated two hours after application), assessed 12 days after application, compared to untreated, read-out: disease control
Experimental: Leaf disks or leaf segments of various plant species are cut from plants grown in a greenhouse. The cut leaf disks or segments are placed in multiwell plates (24-well format) onto water agar. The leaf disks are sprayed with a test solution before (preventative) or after (curative) inoculation. Compounds to be tested are prepared as DMSO solutions (max. 10 mg/ml) which are diluted to the appropriate concentration with 0.025% Tween20 just before spraying. The inoculated leaf disks or segments are incubated under defined conditions (temperature, relative humidity, light, etc.) according to the respective test system. A single evaluation of disease level is carried out 3 to 14 days after inoculation, depending on the pathosystem. Percent disease control relative to the untreated check leaf disks or segments is then calculated. Example 5: Fungicidal Activity Against Uromyces viciae-fabael Field Bean/Leaf Disc Preventative (Faba-Bean Rust) Field bean leaf discs are placed on water agar in multiwell plates (96-well format) and 10 μl of the formulated test compound diluted in acetone and a spreader pipetted onto the leaf disc. Two hours after application leaf discs are inoculated by spraying a spore suspension on the lower leaf surface. The leaf discs are incubated in a climate cabinet at 22° C. with 18 hour day and 70% relative humidity. The activity of a compound is assessed as percent disease control compared to untreated when an appropriate level of disease damage appears in untreated check leaf disks (12 days after application). The following compounds at 100 ppm in the applied formulation give at least 80% disease control in this test when compared to untreated control leaf discs under the same conditions, which show extensive disease development.

[2] = tested on: Glomerella lagenarium (Colletotrichum lagenarium); experiment: Fungicidal activity against Glomerella lagenarium (Colletotrichum lagenarium) liquid culture / cucumber / preventative (anthracnose); format: cell-based; details: Colletotrichum orbiculare; 20 ppm in the applied formulation; liquid culture in PDB, 24° C.; inhibition of growth measured photometrically 3 to 4 days after application; compared to untreated; read-out: disease control
Experimental: Mycelia fragments or conidia suspensions of a fungus prepared either freshly from liquid cultures of the fungus or from cryogenic storage, are directly mixed into nutrient broth. DMSO solutions of the test compound (max. 10 mg/ml) are diluted with 0.025% Tween20 by a factor of 50 and 10 μl of this solution is pipetted into a microtiter plate (96-well format). The nutrient broth containing the fungal spores/mycelia fragments is then added to give an end concentration of the tested compound. The test plates are incubated in the dark at 24° C. and 96% relative humidity. The inhibition of fungal growth is determined photometrically after 2 to 7 days, depending on the pathosystem, and percent antifungal activity relative to the untreated check is calculated. Example 4: Fungicidal Activity Against Glomerella lagenarium (Colletotrichum lagenarium) Liquid Culture/Cucumber/Preventative (Anthracnose) Conidia of the fungus from cryogenic storage are directly mixed into nutrient broth (PDB—potato dextrose broth). After placing a (DMSO) solution of test compound into a microtiter plate (96-well format), the nutrient broth containing the fungal spores is added. The test plates are incubated at 24° C. and the inhibition of growth is measured photometrically 3 to 4 days after application. The following compounds at 20 ppm in the applied formulation give at least 80% disease control in this test when compared to untreated control under the same conditions, which show extensive disease development.

O=C(NC1CCc2ccccc21)c1ccc(-c2noc(C(F)(F)F)n2)c(F)c1 (centres unmarked) [Compound 1.15, 3-fluoro-N-indan-1-yl-4-[5-(trifluoromethyl)-1,2,4-oxadiazol-3-yl]benzamide]
≥ 80%: pest or weed control at 200 ppm (Phakopsora pachyrhizi) | pest or weed control at 200 ppm [1] | pest or weed control at 100 ppm (Uromyces viciae-fabael)

Cc1ccc(C)c(CNC(=O)c2ccc(-c3noc(C(F)(F)F)n3)c(F)c2)c1 [Compound 1.3, N-[(2,5-dimethyl-phenyl)methyl]-3-fluoro-4-[5-(trifluoromethyl)-1,2,4-oxadiazol-3-yl]benzamide]
≥ 80%: pest or weed control at 200 ppm (Phakopsora pachyrhizi) | pest or weed control at 200 ppm [1] | pest or weed control at 100 ppm (Uromyces viciae-fabael)

O=C(NCC1CC(F)(F)C1(F)F)c1ccc(-c2noc(C(F)(F)F)n2)c(F)c1 (centres unmarked) [Compound 1.23, 3-fluoro-N-[(2,2,3,3-tetrafluoro-cyclobutyl)methyl]-4-[5-(trifluoromethyl)-1,2,4-oxadiazol-3-yl]benzamide]
≥ 80%: inhibition of growth at 20 ppm [2] | pest or weed control at 200 ppm (Phakopsora pachyrhizi) | pest or weed control at 200 ppm [1] | pest or weed control at 100 ppm (Uromyces viciae-fabael)

COc1ccc2[nH]cc(CCNC(=O)c3ccc(-c4noc(C(F)(F)F)n4)c(F)c3)c2c1 [Compound 1.4, 3-fluoro-N-[2-(5-methoxy-1H-indol-3-yl)ethyl]-4-[5-(trifluoromethyl)-1,2,4-oxadiazol-3-yl]benzamide]
≥ 80%: inhibition of growth at 20 ppm [2] | pest or weed control at 200 ppm (Phakopsora pachyrhizi) | pest or weed control at 200 ppm [1] | pest or weed control at 100 ppm (Uromyces viciae-fabael)

CC(C)CC(C)NC(=O)c1ccc(-c2noc(C(F)(F)F)n2)c(F)c1 (centres unmarked) [Compound 1.38, N-(1,3-dimethylbutyl)-3-fluoro-4-[5-(trifluoromethyl)-1,2,4-oxadiazol-3-yl]benzamide]
≥ 80%: inhibition of growth at 20 ppm [2] | pest or weed control at 200 ppm (Phakopsora pachyrhizi) | pest or weed control at 200 ppm [1] | pest or weed control at 100 ppm (Uromyces viciae-fabael)

O=C(NCCSCc1ccc(Cl)nc1)c1ccc(-c2noc(C(F)(F)F)n2)c(F)c1 [Compound 1.10, N-[2-[(6-chloro-3-pyridyl)methyl-sulfanyl]ethyl]-3-fluoro-4-[5-(trifluoromethyl)-1,2,4-oxadiazol-3-yl]benzamide]
≥ 80%: inhibition of growth at 20 ppm [2] | pest or weed control at 200 ppm (Phakopsora pachyrhizi) | pest or weed control at 200 ppm [1] | pest or weed control at 100 ppm (Uromyces viciae-fabael)

C#CC1(NC(=O)c2ccc(-c3noc(C(F)(F)F)n3)c(F)c2)CCCCC1 [Compound 1.8, N-(1-ethynylcyclohexyl)-3-fluoro-4-[5-(trifluoromethyl)-1,2,4-oxadiazol-3-yl]benzamide]
≥ 80%: inhibition of growth at 20 ppm [2] | pest or weed control at 200 ppm (Phakopsora pachyrhizi) | pest or weed control at 200 ppm [1] | pest or weed control at 100 ppm (Uromyces viciae-fabael)
